Assay results from US4352803A, “Novel naphthyridine derivatives, intermediates thereof, processes for preparation thereof, and use thereof” (Dainippon Pharmaceutical Co., Ltd., priority 1978, dated 1982).
Converted amounts (≈) assume the structure as drawn. Where two headings read alike, the source gives them in different places.

What was measured:
[1] = tested on: Salmonella typhimurium 8-9; assay: In vitro antibacterial activity (MIC), Salmonella typhimurium 8-9; format: cell-based; conditions: Salmonella enterica, read-out: minimum inhibitory concentration (MIC)
Description: (§1) (MIC) (μg/ml) Method; Chemotherapy, 22(6), 1126 (1974)

[2] = tested on: Streptococcus faecalis P-2473; assay: In vitro antibacterial activity (MIC), Streptococcus faecalis P-2473; format: cell-based; conditions: Enterococcus faecalis, P2473; Streptococcus faecalis P-2473; read-out: minimum inhibitory concentration (MIC)
Description: as §1

[3] = tested on: Staphylococcus aureus No. 50774; assay: in vivo efficacy against systemic infection in mice, Staphylococcus aureus No. 50774; conditions: NO.50774, in Mus musculus, po, 336 h
Experimental: Male mice (ddY) weighing about 20 g
Intravenous infection with (about
5 × 10^8 cells/mouse) of a bacterial
(§2) Twice, about 5 minutes and 6 hours after infection.

[4] = tested on: Pseudomonas aeruginosa No. 12; assay: in vivo efficacy against systemic infection in mice, Pseudomonas aeruginosa No. 12; conditions: NO.12, in Mus musculus, po, 168 h
Experimental: Male mice (ddY) weighing about 20 g
(3) Pseudomonas aeruginosa No. 12;
(about 5 × 10^3 cells/mouse) of a bacterial
(§3) suspension in trypto-soy broth with 4% mucin.
as §2
The numerals in the table show ED50 (mg/kg). ED50 values were

[5] = tested on: Serratia marcescens IFC 3736; assay: In vitro antibacterial activity (MIC), Serratia marcescens IFC 3736; format: cell-based; conditions: IFC3736; Serratia marcescens IFC 3736; read-out: minimum inhibitory concentration (MIC)
Description: as §1

Escherichia coli P-140a = assay: In vitro antibacterial activity (MIC), Escherichia coli P-140a; format: cell-based; conditions: read-out: minimum inhibitory concentration (MIC)
Description: as §1

Shigella flexneri 2a = assay: In vitro antibacterial activity (MIC), Shigella flexneri 2a; format: cell-based; conditions: read-out: minimum inhibitory concentration (MIC)
Description: as §1

[6] = tested on: Pseudomonas aeruginosa Tsuchijima; assay: In vitro antibacterial activity (MIC), Pseudomonas aeruginosa Tsuchijima; format: cell-based; conditions: Pseudomonas aeruginosa Tsuchijima; read-out: minimum inhibitory concentration (MIC)
Description: as §1

Escherichia coli P-5101 [7] = assay: in vivo efficacy against systemic infection in mice, Escherichia coli P-5101; conditions: P5101, in Mus musculus, po, 168 h
Experimental: Male mice (ddY) weighing about 20 g
Intraperitoneal infection with (about
9 × 10^6 cells/mouse) of a bacterial
as §3, §2

[8] = tested on: Shigella flexneri 4a P-330; assay: In vitro antibacterial activity (MIC), Shigella flexneri 4a P-330; format: cell-based; conditions: 4AP330, read-out: minimum inhibitory concentration (MIC)
Description: as §1

Plasma level in dogs = format: in vivo, Beagle dogs; conditions: dog, plasma
Experimental: Two male Beagle dogs weighing 12 kg each were orally given a capsule containing one of compounds 1 and 2 at a dose of 25 mg/kg with 200 ml of milk respectively. Blood samples were taken by venipuncture from the two dogs at each 0.5, 1, 2, 3, 6, 8 and 10 hours after administration, and centrifuged individually to separate the plasma.
Drug levels were determined by the thin-layer cup-plate method using Escherichia coli Kp as an indicator organism.

[9] = tested on: Corynebacterium pyogenes C-21; assay: In vitro antibacterial activity (MIC), Corynebacterium pyogenes C-21; format: cell-based; conditions: Rhodococcus (subgen. Prescottella) equi, C21; Corynebacterium pyogenes C-21; read-out: minimum inhibitory concentration (MIC)
Description: as §1

[10] = Urinary excretion in dogs; format: in vivo, Beagle dogs; conditions: dog, urine, po, 25 mg/kg, urine pooled over 24 hours, oral 25 mg/kg
[11] = tested on: Streptococcus pyogenes 65A; assay: In vitro antibacterial activity (MIC), Streptococcus pyogenes 65A; format: cell-based; conditions: read-out: minimum inhibitory concentration (MIC)
Description: as §1

in vivo = conditions: mouse, in vivo, po
Experimental: The number of dead mice was counted after 7 days, and the value of median lethal dose (LD50, mg/kg) was calculated in accordance with the Behrens-Kaerber method.

Escherichia coli P-5101 [12] = assay: In vitro antibacterial activity (MIC), Escherichia coli P-5101; format: cell-based
Description: as §1

[13] = tested on: Pseudomonas aeruginosa No. 12; assay: in vivo efficacy on the ascending kidney infection in mice; set-up: species or system mice (ddY-S); conditions: 120 h; ascending kidney infection with Pseudomonas aeruginosa No. 12; po; mice
Experimental: Female mice (ddY-S) weighing 22 to 30 g were anesthetized by intravenous injection of sodium pentobarbital at a dose of 50 mg/kg. Through a small suprapubic incision, the urinary bladder was exposed and then infected by injecting 0.1 ml of a 1:10,000 dilution of Pseudomonas aeruginosa No. 12 cultured for 20 hours in trypto-soy broth, using 0.25 ml syringe with 0.25 mm needle. The mice were restrained from drinking water for a period from 1 day before to 1 day after the infection and treated twice a day for 3 days starting on the day of infection. On the 5th day after infection, the kidneys were harvested for the detection of the bacteria, transversely bisected and stamped on King A Agar, which were incubated at 37° C. overnight. No bacterial finding in the kidneys was regarded as protected from the ascending kindey infection. ED50 values were calculated by probit analysis.

[14] = tested on: Staphylococcus aureus 209P JC-1; assay: In vitro antibacterial activity (MIC), Staphylococcus aureus 209P JC-1; format: cell-based; conditions: Staphylococcus aureus 209P JC-1; read-out: minimum inhibitory concentration (MIC)
Description: as §1

[15] = tested on: Pseudomonas aeruginosa No. 12; assay: In vitro antibacterial activity (MIC), Pseudomonas aeruginosa No. 12; format: cell-based; conditions: Pseudomonas aeruginosa No. 12; read-out: minimum inhibitory concentration (MIC)
Description: as §1

[16] = tested on: Enterobacter cloacae P-2540; assay: In vitro antibacterial activity (MIC), Enterobacter cloacae P-2540; format: cell-based
Description: as §1

[17] = tested on: Escherichia coli NIHJ JC-2; assay: In vitro antibacterial activity (MIC), Escherichia coli NIHJ JC-2; format: cell-based
Description: as §1

Proteus morganii Kono = assay: In vitro antibacterial activity (MIC), Proteus morganii Kono; format: cell-based; conditions: Morganella morganii, read-out: minimum inhibitory concentration (MIC)
Description: as §1

Proteus mirabilis P-2381 = assay: In vitro antibacterial activity (MIC), Proteus mirabilis P-2381; format: cell-based
Description: as §1

[18] = tested on: Salmonella enteritidis No. 1891; assay: In vitro antibacterial activity (MIC), Salmonella enteritidis No. 1891; format: cell-based; conditions: Salmonella enterica, read-out: minimum inhibitory concentration (MIC)
Description: as §1

[19] = tested on: Klebsiella pneumoniae No. 13; assay: In vitro antibacterial activity (MIC), Klebsiella pneumoniae No. 13; format: cell-based; conditions: Klebsiella pneumoniae No. 13; read-out: minimum inhibitory concentration (MIC)
Description: as §1

[20] = tested on: Staphylococcus aureus No. 50774; assay: In vitro antibacterial activity (MIC), Staphylococcus aureus No. 50774; format: cell-based
Description: as §1

[21] = tested on: Gram-positive and Gram-negative bacteria; assay: in vivo therapeutic efficacy against systemic infections in mice (overall); set-up: species or system mice (ddY); conditions: systemic infections with Gram-positive and Gram-negative bacteria
[22] = tested on: Gram-positive bacteria and Gram-negative bacteria; assay: In vitro antibacterial activity against 19 strains of bacteria (overall); format: cell-based; conditions: comparisons are with compounds of the invention
Description: as §1

CCn1cc(C(=O)O)c(=O)c2cc(F)c(N3CCNCC3)nc21 [Compound 1]
MIC ([1]; Salmonella typhimurium 8-9): 0.1 mg/L (≈ 0.312 µM) | MIC [2]: 12.5 mg/L (≈ 39 µM) | ED50 [3]: 10 mg/kg | ED50 [4]: 9 mg/kg | MIC [5]: 0.39 mg/L (≈ 1.22 µM) | MIC (Escherichia coli P-140a; P140A, Escherichia coli P-140a): 0.2 mg/L (≈ 0.624 µM) | MIC (Shigella flexneri 2a): 0.2 mg/L (≈ 0.624 µM) | MIC [6]: 0.39 mg/L (≈ 1.22 µM) | ED50 (Escherichia coli P-5101 [7]): 1.8 mg/kg | MIC [8]: 0.39 mg/L (≈ 1.22 µM) | concentration at 0.5 h (Plasma level in dogs; 0.5 hr after oral 25 mg/kg, nd: nondetective): 0.6 µg/mL | concentration at 1 h (Plasma level in dogs; 1 hr after oral 25 mg/kg, nd: nondetective): 2.4 µg/mL | concentration at 2 h (Plasma level in dogs; 2 hr after oral 25 mg/kg): 5.5 µg/mL | concentration at 3 h (Plasma level in dogs; 3 hr after oral 25 mg/kg): 5.9 µg/mL | concentration at 6 h (Plasma level in dogs; 6 hr after oral 25 mg/kg): 4.2 µg/mL | concentration at 8 h (Plasma level in dogs; 8 hr after oral 25 mg/kg): 3.7 µg/mL | concentration at 10 h (Plasma level in dogs; 10 hr after oral 25 mg/kg): 2.4 µg/mL | MIC [9]: 1.56 mg/L (≈ 4.87 µM) | concentration at 24 h [10]: 606 µg/mL | dose excreted at 24 h ([10]; read-out: urinary recovery): 40.7% | MIC ([11]; Streptococcus pyogenes 65A): 12.5 mg/L (≈ 39 µM) | LD50 at 168 h (in vivo): > 4000 mg/kg | MIC (Escherichia coli P-5101 [12]; P5101, Escherichia coli P-5101, read-out: minimum inhibitory concentration (MIC)): 0.1 mg/L (≈ 0.312 µM) | ED50 [13]: 2.4 mg/kg | MIC [14]: 0.78 mg/L (≈ 2.44 µM) | MIC [15]: 0.78 mg/L (≈ 2.44 µM) | MIC ([16]; P2540, Enterobacter cloacae P-2540, read-out: minimum inhibitory concentration (MIC)): 0.2 mg/L (≈ 0.624 µM) | MIC ([17]; NIHJJC2, Escherichia coli NIHJ JC-2, read-out: minimum inhibitory concentration (MIC)): 0.2 mg/L (≈ 0.624 µM) | MIC (Proteus morganii Kono; Proteus morganii Kono): 0.2 mg/L (≈ 0.624 µM) | MIC (Proteus mirabilis P-2381; P2381, Proteus mirabilis P-2381, read-out: minimum inhibitory concentration (MIC)): 0.39 mg/L (≈ 1.22 µM) | MIC ([18]; Salmonella enteritidis No. 1891): 0.1 mg/L (≈ 0.312 µM) | MIC [19]: 0.2 mg/L (≈ 0.624 µM) | MIC ([20]; Staphylococcus aureus No. 50774, read-out: minimum inhibitory concentration (MIC)): 0.78 mg/L (≈ 2.44 µM)

CCn1cc(C(=O)O)c(=O)c2cc(Cl)c(N3CCNCC3)cc21 [Compound C, 6-Chloro-1-ethyl-1,4-dihydro-4-oxo-7-(1-piperazinyl)quinoline-3-carboxylic acid]
MIC ([1]; TYPHIMURIUM): 0.2 mg/L (≈ 0.596 µM) | MIC [2]: 6.25 mg/L (≈ 18.6 µM) | ED50 [3]: ~100 mg/kg | ED50 [4]: > 100 mg/kg | MIC [5]: 0.78 mg/L (≈ 2.32 µM) | therapeutic effect / in vivo antibacterial activity (in words) [21]: clearly inferior | MIC (Escherichia coli P-140a; Escherichia coli): 0.2 mg/L (≈ 0.596 µM) | MIC (Shigella flexneri 2a): 0.39 mg/L (≈ 1.16 µM) | MIC [6]: 3.13 mg/L (≈ 9.32 µM) | ED50 (Escherichia coli P-5101 [7]): ~15 mg/kg | MIC [8]: 0.2 mg/L (≈ 0.596 µM) | MIC [9]: 1.56 mg/L (≈ 4.65 µM) | MIC ([11]; Streptococcus pyogenes, 65A): 6.25 mg/L (≈ 18.6 µM) | LD50 at 168 h (in vivo): > 2000 mg/kg | antibacterial activity (in words) [22]: clearly inferior | MIC (Escherichia coli P-5101 [12]; Escherichia coli, P5101, read-out: minimum inhibitory concentration (MIC)): 0.2 mg/L (≈ 0.596 µM) | MIC [14]: 0.78 mg/L (≈ 2.32 µM) | MIC [15]: 3.13 mg/L (≈ 9.32 µM) | MIC ([16]; Enterobacter cloacae, P2540, read-out: minimum inhibitory concentration (MIC)): 0.2 mg/L (≈ 0.596 µM) | MIC ([17]; Escherichia coli, NIHJJC2, read-out: minimum inhibitory concentration (MIC)): 0.39 mg/L (≈ 1.16 µM) | MIC (Proteus morganii Kono): 0.39 mg/L (≈ 1.16 µM) | MIC (Proteus mirabilis P-2381; Proteus mirabilis, P2381, read-out: minimum inhibitory concentration (MIC)): 0.39 mg/L (≈ 1.16 µM) | MIC ([18]; ENTERITIDIS): 0.2 mg/L (≈ 0.596 µM) | MIC [19]: 0.78 mg/L (≈ 2.32 µM) | MIC ([20]; Staphylococcus aureus, NO.50774, read-out: minimum inhibitory concentration (MIC)): 1.56 mg/L (≈ 4.65 µM)
